Where two headings read alike, the source gives them in different places.
How the values were obtained:
Mino cells = test: Inhibition of cell proliferation, Mino cells (Cell Viability Assay, 72 h); type: cell-based, human; details: Homo sapiens, MINO, 72 h
Procedure, shortened: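 Cells in RPMI1640 + 10% FBS were seeded at 20000/well (SU-DHL-4) or 5000/well (Mino, SU-DHL-6) and exposed to compound for 72 h at 37 °C in triplicate, with a DMSO vehicle control. Viability was read by […]. IC50 was fitted, and Max inhi.% was taken at the highest concentration relative to vehicle.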

SU-DHL-4 cells = test: Inhibition of cell proliferation, SU-DHL-4 cells (Cell Viability Assay, 72 h); type: cell-based, human
Description: (§1) SU-DHL-4, Mino, and SU-DHL-6 cells, in the culture medium of RPMI1640+10% FBS, were cultured in an incubator at 37° C. under 5% CO2. Cells were plated in a 96-well plate. Specifically, SU-DHL-4 cells were at 20000/well, Mino and SU-DHL-6 cells were at 5000/well, with 90 μL/well. 10 μL of the compounds at different concentrations were added to each well. There were 3 replicate wells for each concentration, and the last column, added with DMSO, was used as a vehicle control group. The cultures were continued for 72 hours at 37° C. under 5% CO2. After 72 hours, 100 μL of detection reagent (Cell Viability Assay, Promega, G7573) was added to each well, and the cultures were uniformly mixed for 2 minutes, and incubated at room temperature for 10 minutes. The […] signal value was measured with a microplate reader (PHERAstar FSX). The IC50 value of the compound on cell proliferation inhibition was calculated using origin9.2 software, and the inhibition rate at the highest concentration of the compound (Max inhi.%) was calculated according to formula (1).
(§2) Max inhi.%=(1−T72administration/T72vehicle)×100 Formula (1).

SU-DHL-6 cells = test: Inhibition of cell proliferation, SU-DHL-6 cells (Cell Viability Assay, 72 h); type: cell-based, human
Description: as §1, §2

[1] = Pharmacokinetic experiment in rats; type: in vivo; details: male, SD, rat, plasma, po, i.g. (20 mg/kg)
Description: Experimental objective: In this experiment, a single dose of each test compound was administered to SD rats intravenously and intragastrically, the concentrations of the test compound in plasma of rats were measured, and the pharmacokinetic characteristics and bioavailability of the test compound in rats were evaluated.
Experimental animals: Male SD rats, about 200 g, 6-8 weeks old, 6 rats/compound. Rats were purchased from Hunan SJA Laboratory Animal Co., Ltd, with the laboratory animal production license number of SCXK (Xiang) 2019-004.
Experimental method: On the day of the experiment, 6 SD rats were randomly grouped according to their body weight. The animals were fasted with water available for 12 to 14 hours one day before the administration of a test compound, and were fed 4 hours after the administration.
Before and after the administration, […] of blood was taken from the orbit of the rats under isoflurane anesthesia, and placed in an EDTAK2 centrifuge tube. Centrifugation was carried out at 5000 rpm at 4° C. for 10 min, and the plasma was collected.
Time points for sample collection in G1&G2 groups comprise
Before analysis and detection, all samples were stored at −80° C. The samples were detected by HPLC-MS/MS.

BTK = biological target: T1, BTK (Homo sapiens, UniProt Q06187); test: Detection of BTK degradation in Mino cells (automated western blot); type: cell-based; details: 48 hours
T1 construct: endogenous in cells; host or cells: Mino human mantle cell lymphoma cells (ATCC)
Description: Mino human mantle cell lymphoma cell line was purchased from ATCC and cultured under the following conditions: RPMI-1640+15% FBS+1% double antibody in a 37° C., 5% CO2 incubator. Cells were plated in a 6-well plate, with 5×10^5 cells/well. After plating, the compounds at different concentrations were added and cultured in an incubator at 37° C. under 5% CO2 for 48 hours. After culturing, the cells were collected, and RIPA lysis buffer (Beyotime, Cat. P0013B) was added. The cells were lysed on ice for 15 minutes, and centrifuged at 12000 rpm at 4° C. for 10 minutes. The protein sample of the supernatant was collected, and the protein was quantified by using the BCA kit (Beyotime, Cat. P0009), and then the protein was diluted to 0.25 mg/mL. The expressions of BTK (CST, Cat. 8547S) and the internal reference β-actin (CST, Cat. 3700S) were detected using a fully automated western blot quantitative analyzer (Proteinsimple) with a kit (Protein simple, Cat. SM-W004). The expression level of BTK relative to the internal reference was calculated using Compass software, and the DC50 value was calculated using Origin9.2 software according to formula (3). Specifically, the BTKadministration denoted the expression level of BTK in administration groups at different doses, and the BTKvehicle denoted the expression level of BTK in the vehicle control group. […]

BTK protein = biological target: T2, BTK protein (Mus musculus, UniProt P35991); test: Detection of BTK protein degradation in spleen of mice; type: in vivo; details: po, female ICR mice, 3 consecutive days of intragastric administration, read-out: DD50 value of compounds on BTK protein degradation in spleen of mice
T2 construct: from tissue; host or cells: spleen of female ICR mice
Description: Female ICR mice, 6-8 weeks old, were purchased from BEIJING VITAL RIVER LABORATORY ANIMAL TECHNOLOGY CO., LTD, and the experiment was started after 3 days of adaptation. After 3 consecutive days of intragastric administration of different doses of the compound, the spleen of mice was taken, the spleen cells were collected, and RIPA lysis buffer (Beyotime, Cat. P0013B) was added. The cells were lysed on ice for 15 minutes, and centrifuged at 12000 rpm at 4° C. for 10 minutes. The protein sample of the supernatant was collected, and the protein was quantified by using the BCA kit (Beyotime, Cat. P0009), and then the protein was diluted to 0.25 mg/mL. The expressions of BTK (CST, Cat. 8547S) and the internal reference β-actin (CST, Cat. 3700S) were detected using a fully automated western blot quantitative analyzer (Proteinsimple). The expression level of BTK relative to the internal reference was calculated using Compass software, and the DD50 value was calculated using Origin9.2 software according to formula (4). Specifically, the BTKadministration denoted the expression level of BTK in administration groups at different doses, and the BTKvehicle denoted the expression level of BTK in the vehicle control group. BTK %=BTKadministration/BTKvehicle×100% formula (4)

Aiolos = biological target: T3, Aiolos (Homo sapiens, UniProt Q9UKT9); test: Detection of Aiolos degradation in Mino cells (automated western blot); type: cell-based; details: 48 hours
T3 construct: endogenous in cells; host or cells: Mino human mantle cell lymphoma cells (ATCC)
Description: Mino is a human mantle cell lymphoma cell line purchased from ATCC and cultured under the following conditions: RPMI-1640+15% FBS+1% double antibody in a 37° C., 5% CO2 incubator. Cells were plated in a 6-well plate, with 5×10^5 cells/well. After plating, the compounds at different concentrations were added and cultured in an incubator at 37° C. under 5% CO2 for 48 hours. After culturing, the cells were collected, and RIPA lysis buffer (Beyotime, Cat. P0013B) was added. The cells were lysed on ice for 15 minutes, and centrifuged at 12000 rpm at 4° C. for 10 minutes. The protein sample of the supernatant was collected, and the protein was quantified by using the BCA kit (Beyotime, Cat. P0009), and then the protein was diluted to 0.25 mg/mL. The expressions of Aiolos (CST, Cat. 15103S) and the internal reference GAPDH (CST, Cat. 5174S) were detected using a fully automated western blot quantitative analyzer (Proteinsimple). The expression level of Aiolos relative to the internal reference was calculated using Compass software, and the DC50 value was calculated using Origen9.2 software according to formula (5). Specifically, the Aiolosadministration denoted the expression level of Aiolos in administration groups at different doses, and the Aiolosvehicle denoted the expression level of Aiolos in the vehicle control group.
Aiolos %=Aiolosadministration/Aiolosvehicle×100% formula (5)

T3 sequence (Q96SW2 whole entry partner): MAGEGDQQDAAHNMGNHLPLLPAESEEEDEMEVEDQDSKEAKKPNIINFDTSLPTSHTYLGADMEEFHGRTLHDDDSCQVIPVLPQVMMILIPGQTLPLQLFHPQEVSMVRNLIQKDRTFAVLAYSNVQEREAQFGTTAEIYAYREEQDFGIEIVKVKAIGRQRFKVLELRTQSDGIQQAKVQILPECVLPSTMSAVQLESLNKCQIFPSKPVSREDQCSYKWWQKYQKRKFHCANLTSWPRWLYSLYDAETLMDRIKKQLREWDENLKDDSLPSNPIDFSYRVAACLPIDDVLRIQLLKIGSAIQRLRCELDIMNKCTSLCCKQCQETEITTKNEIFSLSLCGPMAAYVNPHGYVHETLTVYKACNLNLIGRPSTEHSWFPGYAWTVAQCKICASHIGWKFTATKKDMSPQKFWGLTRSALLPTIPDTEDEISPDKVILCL
T3 sequence (Q16531 whole entry partner): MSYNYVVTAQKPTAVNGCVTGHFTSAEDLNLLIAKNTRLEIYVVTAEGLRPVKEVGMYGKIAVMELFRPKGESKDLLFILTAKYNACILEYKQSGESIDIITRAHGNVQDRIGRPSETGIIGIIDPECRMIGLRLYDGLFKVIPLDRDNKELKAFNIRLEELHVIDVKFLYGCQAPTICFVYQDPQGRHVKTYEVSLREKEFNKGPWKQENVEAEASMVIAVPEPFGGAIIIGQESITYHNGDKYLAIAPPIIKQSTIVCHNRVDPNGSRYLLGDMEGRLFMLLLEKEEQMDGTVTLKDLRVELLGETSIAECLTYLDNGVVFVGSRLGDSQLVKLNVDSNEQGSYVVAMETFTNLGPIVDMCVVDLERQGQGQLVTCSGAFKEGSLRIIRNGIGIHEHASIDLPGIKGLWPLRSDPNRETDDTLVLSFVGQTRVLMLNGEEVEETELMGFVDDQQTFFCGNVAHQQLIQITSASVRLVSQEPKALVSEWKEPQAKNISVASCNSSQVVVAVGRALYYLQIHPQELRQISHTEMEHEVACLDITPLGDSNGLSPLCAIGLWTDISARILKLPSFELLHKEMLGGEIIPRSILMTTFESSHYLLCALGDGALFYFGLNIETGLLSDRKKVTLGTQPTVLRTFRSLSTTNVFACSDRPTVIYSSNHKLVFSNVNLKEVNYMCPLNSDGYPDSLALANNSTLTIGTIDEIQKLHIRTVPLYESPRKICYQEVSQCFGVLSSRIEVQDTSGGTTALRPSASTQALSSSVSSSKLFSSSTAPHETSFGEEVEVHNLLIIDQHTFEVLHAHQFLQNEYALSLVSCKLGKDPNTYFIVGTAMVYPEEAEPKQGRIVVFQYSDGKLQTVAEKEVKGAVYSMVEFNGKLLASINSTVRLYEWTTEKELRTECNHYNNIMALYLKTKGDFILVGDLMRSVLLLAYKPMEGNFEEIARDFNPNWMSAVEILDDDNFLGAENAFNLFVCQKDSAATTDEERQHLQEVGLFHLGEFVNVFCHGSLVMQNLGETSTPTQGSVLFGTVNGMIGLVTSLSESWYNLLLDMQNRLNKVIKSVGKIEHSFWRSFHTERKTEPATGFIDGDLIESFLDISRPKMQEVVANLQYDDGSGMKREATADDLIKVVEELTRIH
T3 sequence (Q9UKT9 whole entry): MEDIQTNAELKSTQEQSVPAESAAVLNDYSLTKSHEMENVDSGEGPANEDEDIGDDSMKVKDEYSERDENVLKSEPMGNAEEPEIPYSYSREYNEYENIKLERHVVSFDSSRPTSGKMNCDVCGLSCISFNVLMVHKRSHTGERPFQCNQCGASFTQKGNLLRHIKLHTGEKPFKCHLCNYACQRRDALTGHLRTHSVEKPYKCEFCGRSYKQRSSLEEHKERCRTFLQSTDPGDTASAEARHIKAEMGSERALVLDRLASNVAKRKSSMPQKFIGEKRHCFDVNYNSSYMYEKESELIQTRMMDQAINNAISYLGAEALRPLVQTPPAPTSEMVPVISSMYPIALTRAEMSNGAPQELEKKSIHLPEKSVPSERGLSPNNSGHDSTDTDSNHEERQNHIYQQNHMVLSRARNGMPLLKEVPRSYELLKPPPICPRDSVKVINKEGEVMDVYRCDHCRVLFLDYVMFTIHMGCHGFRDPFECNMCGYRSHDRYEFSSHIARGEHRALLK
T1 sequence (Q06187 whole entry): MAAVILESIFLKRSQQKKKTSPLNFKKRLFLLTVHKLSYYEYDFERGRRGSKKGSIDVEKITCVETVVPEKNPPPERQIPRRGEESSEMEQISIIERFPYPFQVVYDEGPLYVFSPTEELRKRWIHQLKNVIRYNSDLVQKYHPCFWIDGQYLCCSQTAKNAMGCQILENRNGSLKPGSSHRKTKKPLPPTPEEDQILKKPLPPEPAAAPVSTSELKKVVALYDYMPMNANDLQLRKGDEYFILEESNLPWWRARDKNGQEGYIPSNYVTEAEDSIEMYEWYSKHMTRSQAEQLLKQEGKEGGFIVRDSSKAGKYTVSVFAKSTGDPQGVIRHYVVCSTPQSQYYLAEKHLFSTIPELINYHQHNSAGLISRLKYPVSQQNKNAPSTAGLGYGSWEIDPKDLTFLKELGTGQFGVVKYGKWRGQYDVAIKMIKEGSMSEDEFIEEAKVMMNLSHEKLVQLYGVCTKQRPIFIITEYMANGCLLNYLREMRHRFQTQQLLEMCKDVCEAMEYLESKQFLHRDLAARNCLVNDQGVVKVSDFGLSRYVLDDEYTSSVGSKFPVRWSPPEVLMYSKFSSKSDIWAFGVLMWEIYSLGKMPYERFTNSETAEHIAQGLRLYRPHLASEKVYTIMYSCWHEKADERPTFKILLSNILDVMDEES
T2 sequence (P35991 whole entry): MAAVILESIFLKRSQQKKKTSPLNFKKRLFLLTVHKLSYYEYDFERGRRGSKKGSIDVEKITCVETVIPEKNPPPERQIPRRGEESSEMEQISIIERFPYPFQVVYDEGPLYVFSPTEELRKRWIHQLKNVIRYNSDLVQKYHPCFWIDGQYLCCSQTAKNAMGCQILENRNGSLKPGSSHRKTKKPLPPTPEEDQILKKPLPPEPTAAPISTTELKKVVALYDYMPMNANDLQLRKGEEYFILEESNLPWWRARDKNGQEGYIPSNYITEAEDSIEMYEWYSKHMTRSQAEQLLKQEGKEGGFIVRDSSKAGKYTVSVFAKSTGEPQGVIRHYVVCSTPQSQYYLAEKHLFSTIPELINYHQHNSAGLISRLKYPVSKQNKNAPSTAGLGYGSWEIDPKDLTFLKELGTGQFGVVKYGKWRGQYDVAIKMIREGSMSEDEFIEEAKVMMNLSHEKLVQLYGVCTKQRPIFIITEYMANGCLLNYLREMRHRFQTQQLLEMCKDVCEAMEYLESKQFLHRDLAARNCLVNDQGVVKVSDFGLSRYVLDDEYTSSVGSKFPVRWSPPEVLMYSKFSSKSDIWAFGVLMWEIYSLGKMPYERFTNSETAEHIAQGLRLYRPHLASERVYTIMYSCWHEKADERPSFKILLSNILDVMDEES

- IC50 (SU-DHL-4 cells): 624 nM
- IC50 (SU-DHL-4 cells; listed as compound 85): 10 to 1000 nM
- IC50 (SU-DHL-6 cells): 26 nM
- bioavailability ([1]; bioavailability): 17.4 ± 5.6%
- AUC(0-t) ([1]; single dose): 3030 ± 982 ng·h/mL
- DC50 (BTK): 1.6 nM
- ED50 (BTK protein): 3.3 mg/kg
- DC50 (Aiolos): ≥ 1000 nM
SMILES: Nc1ncnc2c1c(-c1ccc(Oc3ccccc3)cc1)nn2C1CCN(C2CN(CC3CN(c4ccc5c(c4)C(=O)N(C4CCC(=O)NC4=O)C5=O)C3)C2)CC1 (stereo not drawn) [Compound 85, 5-(3-((3-(4-(4-amino-3-(4-phenoxyphenyl)-1H-pyrazolo[3,4-d]pyrimidin-1-yl)piperidin-1-yl)azetidin-1-yl)methyl)azetidin-1-yl)-2-(2,6-dioxopiperidin-3-yl)isoindoline-1,3-dione]
- IC50 (Mino cells): 32 nM

From patent US20230248833A1, “COMPOUND HAVING BTK KINASE DEGRADING ACTIVITY, AND PREPARATION METHOD AND PHARMACEUTICAL USE THEREFOR” (SICHUAN HAISCO PHARMACEUTICAL CO., LTD., priority 2020, published 2023)
